# Laboratory results reported in patent publication US4069337A, “2-Substituted-indole-1-lower-alkanecarboxamides having anti-secretory or anti-ulcer activity” (Sterling Drug Inc., priority 1976, dated 1978).
# Read-outs that look alike come from different tables or passages of the source.
# How the values were obtained:
# [1] = test system: secretion of gastric fluids; assay: anti-secretory activity in pylorus-ligated rats (method of Shay et al.); assay type: in vivo, male albino Wistar rats
# Description: In standard biological test procedures, described generally by Shay et al., Gastroenterology 5, 43 (1945) and 26, 906 (1954) and by Selmici et al., Acta Physiol. Acad. Sci. Hung. […] Anti-secretory activity was determined in male albino Wistar rats weighing approximately 180 g. using the method described by Shay et al. which is described as follows: the rats were divided into medicated groups of at least five rats each and control groups of ten rats. The rats were medicated orally once daily for 2 days prior to stomach ligation and once again immediately following ligation. All drugs were administered as the free base, and control rats received only the vehicle of medication. The rats were housed individually in wire cages, food was withdrawn 48 hours prior to surgery, and water was withdrawn at the time of surgery. Laparotomy was performed under light ether anesthesia, the pyloric-duodenal junction was ligated, and the wound was closed with metal clips and sprayed with a protective surgical dressing. Five hours following surgery, the rats were sacrificed, the stomach was removed, and the gastric juice collected. The gastric fluid was centrifuged, the total volume, color, and volume of solids were recorded. The pH of the gastric fluid was then determined on a Beckman pH meter, and the "free" and "total" hydrochloric acid content of each gastric sample was determined by titrating an aliquot of the gastric fluid (diluted to approximately 10 ml. with distilled water) by titrating with 0.1N sodium hydroxide against Toepfers reagent and phenolphthalein, respectively. By determining the milliequivalents of hydrochloric acid per milliliter of gastric juice and knowing the total volume of gastric juice secreted by each rat, the total acid output can be calculated. Since pH is a function of "free" acid, the activity of the test compounds can be evaluated by comparison of the mean "free" acid of medicated rats with the mean "free" acid of the controls, and the activity can thus be expressed in terms of percent inhibition of free acid.
# (§1) Data obtained on administration of the compounds of formula I in rats in the anti-secretory and anti-ulcer tests described above are given in the table below. Unless noted otherwise, data were obtained on oral administration. Results in the anti-secretory activity tests are given in terms of the pH of the gastric fluid in the test animals and the percent inhibition of free acid, while results in the anti-ulcer test are given either in terms of the percent inhibition of ulcers or as a ratio representing the number of animals with ulcers (as the numerator) to the total number of animals in the test group (as the denominator). All doses are expressed in mg./kg.
# [2] = test system: reserpine-induced stomach ulceration; assay: anti-ulcer activity, reserpine-induced ulcer test (method of Selmici et al.); assay type: in vivo, male, albino, Sprague-Dawley rats; conditions: oral; for inhibition in vivo at 100 mg/kg / Anti-Ulcer: ratio of number of animals with ulcers to total number of animals in the test group: 100 mg./kg.
# Description: The anti-ulcer activity of the compounds was determined using the reserpine-induced anti-ulcer test method, described by Selmici et al., which is described briefly as follows: male, albino, Sprague-Dawley rats, weighing approximately 300 g., were divided into medicated and control groups of at least five rats each, and one positive control group of five rats medicated with a known drug at the active dose was run with each experiment. The rats were medicated forty-eight, twenty-four, and one hour before receiving an injection of reserpine. All test drugs were administered orally in terms of base, and the control rats received only the vehicle of medication. The rats were housed individually in wire cages, and food was withdrawn 24 hours prior to injection of reserpine, while water was allowed ad libitum. One hour following the third medication, 5.0 mg. of reserpine per kilogram of body weight in a concentration of 5 mg./ml. was injected intramuscularly in each rat. Eighteen hours after injection the rats were sacrificed, their stomachs removed, opened along the greater curvature, rinsed in warm saline, and pinned to a cork board for gross observation. The stomachs were examined for the number and size of ulcerations located in the glandular portion of the stomach with the aid of a one millimeter grid ocular with a 10x dissecting microscope. The degree of ulceration was arbitrarily graded according to the number and size of the ulcers as follows:
# The points were added together and divided by the number of rats in each group to give an ulcer score, and the difference in the mean scores of the medicated and control group was expressed as percent inhibition of ulceration. Alternatively, the results can be expressed as a ratio of the total number of rats with any degree of ulceration (as the numerator) to the total number of rats in the test group (as the denominator).
# as §1
# [3] = test system: reserpine-induced stomach ulceration; assay: as above; assay type: in vivo, male, albino, Sprague-Dawley rats; conditions: for inhibition in vivo at 50 mg/kg: Rattus norvegicus, sc, 18 h; for Anti-Ulcer: ratio of number of animals with ulcers to total number of animals in the test group: s.c., 50 mg./kg.
# [4] = Rattus norvegicus, po, 5 h, oral, 100 mg./kg., read-out: % Inhibition of Free Acid
# [5] = Rattus norvegicus, intraduodenal, 5 h, i.d., 100 mg./kg., read-out: % Inhibition of Free Acid
# [6] = Rattus norvegicus, ip, 5 h, i.p., 100 mg./kg., read-out: % Inhibition of Free Acid
# [7] = Rattus norvegicus, sc, 5 h, s.c., 100 mg./kg., read-out: % Inhibition of Free Acid
# [8] = Rattus norvegicus, 5 h, oral, 100 mg./kg., read-out: % Inhibition of Free Acid
compound,measurement,setting,value
"Cc1c(C)n(CCC(N)=O)c2ccccc12 [Example 4A, β-(2,3-dimethyl-1-indole)propionamide]",inhibition in vivo at 100 mg/kg,[1]; [4],100%
same,pH of the gastric fluid,"[1]; oral, 100 mg./kg.",5.3
same,inhibition in vivo at 1.56 mg/kg,"[2]; Rattus norvegicus, 18 h",43%
same,inhibition in vivo at 6.25 mg/kg,"[2]; Rattus norvegicus, 18 h",48%
same,inhibition in vivo at 25 mg/kg,"[2]; Rattus norvegicus, 18 h",93%
same,inhibition in vivo at 50 mg/kg,[3],89%
"Cc1c(CO)c2cc(F)ccc2n1CCC(N)=O [Example 8E, β-(2-Methyl-3-hydroxymethyl-5-fluoro-1-indole)propionamide]",inhibition in vivo at 100 mg/kg,[1]; [5],89%
same,inhibition in vivo at 100 mg/kg,[1]; [6],100%
same,inhibition in vivo at 100 mg/kg,[1]; [4],22%
same,inhibition in vivo at 100 mg/kg,[1]; [7],100%
same,pH of the gastric fluid,"[1]; i.d., 100 mg./kg.",3.5
same,pH of the gastric fluid,"[1]; i.p., 100 mg./kg.",5.9
same,pH of the gastric fluid,"[1]; oral, 100 mg./kg.",1.1
same,pH of the gastric fluid,"[1]; s.c., 100 mg./kg.",6.1
same,Anti-Ulcer: ratio of number of animals with ulcers to total number of animals in the test group,[3],1/3
"CNC(=O)Cn1c(C)c(C)c2ccccc21 [Example 1B, 2,3-Dimethyl-1-indole-N-methylacetamide]",inhibition in vivo at 6.25 mg/kg,"[1]; Rattus norvegicus, intraduodenal, 5 h, i.d., 6.25 mg./kg., read-out: % Inhibition of Free Acid",46%
same,inhibition in vivo at 100 mg/kg,[1]; [4],45%
same,pH of the gastric fluid,"[1]; i.d., 6.25 mg./kg.",1.4
same,pH of the gastric fluid,"[1]; oral, 100 mg./kg.",1.8
same,inhibition in vivo at 100 mg/kg,"[2]; Rattus norvegicus, 18 h",91%
same,inhibition in vivo at 50 mg/kg,[3],93%
"Cc1c(C)n(CC(N)=O)c2ccccc12 [Example 1A, 2,3-dimethyl-1-indoleacetamide]",inhibition in vivo at 25 mg/kg,"[1]; Rattus norvegicus, po, 5 h, oral, 25 mg./kg., read-out: % Inhibition of Free Acid",69%
same,inhibition in vivo at 50 mg/kg,"[1]; Rattus norvegicus, po, 5 h, oral, 50 mg./kg., read-out: % Inhibition of Free Acid",65%
same,inhibition in vivo at 100 mg/kg,[1]; [4],100%
same,inhibition in vivo at 200 mg/kg,"[1]; Rattus norvegicus, po, 5 h, oral, 200 mg./kg., read-out: % Inhibition of Free Acid",100%
same,pH of the gastric fluid,"[1]; oral, 25 mg./kg.",2.6
same,pH of the gastric fluid,"[1]; oral, 50 mg./kg.",3.0
same,pH of the gastric fluid,"[1]; oral, 100 mg./kg.",6.0
same,pH of the gastric fluid,"[1]; oral, 200 mg./kg.",6.7
same,inhibition in vivo at 0.8 mg/kg,"[2]; Rattus norvegicus, 18 h, 0.8 mg./kg.",0%
same,inhibition in vivo at 1.56 mg/kg,"[2]; Rattus norvegicus, 18 h",38%
same,inhibition in vivo at 3.12 mg/kg,"[2]; Rattus norvegicus, 18 h, 3.12 mg./kg.",45%
same,inhibition in vivo at 6.25 mg/kg,"[2]; Rattus norvegicus, 18 h",75%
same,inhibition in vivo at 12.5 mg/kg,"[2]; Rattus norvegicus, 18 h, 12.5 mg./kg.",81%
same,inhibition in vivo at 25 mg/kg,"[2]; Rattus norvegicus, 18 h",95%
same,inhibition in vivo at 50 mg/kg,"[2]; Rattus norvegicus, 18 h",98%
same,inhibition in vivo at 100 mg/kg,"[2]; Rattus norvegicus, 18 h",99%
"NC(=O)CCn1c(-c2ccccc2)c(C=O)c2ccccc21 [Example 4N, β-(2-Phenyl-3-formyl-1-indole)propionamide]",inhibition in vivo at 100 mg/kg,[1]; [8],0%
same,inhibition in vivo at 100 mg/kg,[1]; [7],0%
same,pH of the gastric fluid,"[1]; oral, 100 mg./kg.",1.0
same,pH of the gastric fluid,"[1]; s.c., 100 mg./kg.",1.0
same,Anti-Ulcer: ratio of number of animals with ulcers to total number of animals in the test group,[2],5/5
"Cc1c(C=O)n(CCC(N)=O)c2ccccc12 [Example 4K, β-(2-Formyl-3-methyl-1-indole)propionamide]",inhibition in vivo at 100 mg/kg,[1]; [5],37%
same,inhibition in vivo at 100 mg/kg,[1]; [6],54%
same,pH of the gastric fluid,"[1]; i.d., 100 mg./kg.",1.54
same,pH of the gastric fluid,"[1]; i.p., 100 mg./kg.",2.30
same,pH of the gastric fluid,"[1]; oral, 100 mg./kg.",1.16
same,Anti-Ulcer: ratio of number of animals with ulcers to total number of animals in the test group,[2],3/5
"Cc1c(C)n(CCC(N)=S)c2ccccc12 [Example 7B, β(2,3-dimethyl-1-indole)thiopropionamide]",inhibition in vivo at 100 mg/kg,[1]; [4],60%
same,pH of the gastric fluid,"[1]; oral, 100 mg./kg.",2.2
same,inhibition in vivo at 100 mg/kg,"[2]; Rattus norvegicus, 18 h",100%
"Cc1c(C)n(CCC(N)=O)c2ccc(Cl)cc12 [Example 4B, β-(2,3-Dimethyl-5-chloro-1-indole)propionamide]",inhibition in vivo at 100 mg/kg,[1]; [4],88%
same,pH of the gastric fluid,"[1]; oral, 100 mg./kg.",3.6
same,inhibition in vivo at 25 mg/kg,"[2]; Rattus norvegicus, 18 h",95%
"Cc1c(CO)c2ccccc2n1CC(N)=O [Example 8C, 2-Methyl-3-hydroxymethyl-1-indoleacetamide]",inhibition in vivo at 100 mg/kg,[1]; [5],30%
same,inhibition in vivo at 100 mg/kg,[1]; [6],61%
same,inhibition in vivo at 100 mg/kg,[1]; [4],62%
same,inhibition in vivo at 100 mg/kg,[1]; [7],100%
same,pH of the gastric fluid,"[1]; i.d., 100 mg./kg.",1.1
same,pH of the gastric fluid,"[1]; i.p., 100 mg./kg.",2.0
same,pH of the gastric fluid,"[1]; oral, 100 mg./kg.",1.5
same,pH of the gastric fluid,"[1]; s.c., 100 mg./kg.",6.9
same,Anti-Ulcer: ratio of number of animals with ulcers to total number of animals in the test group,[3],0/5
"Cc1c(C=O)c2cc(F)ccc2n1CCC(N)=O [Example 4G, β-(2-Methyl-3-formyl-5-fluoro-1-indole)propionamide]",inhibition in vivo at 100 mg/kg,[1]; [8],17%
same,inhibition in vivo at 100 mg/kg,[1]; [7],36%
same,pH of the gastric fluid,"[1]; oral, 100 mg./kg.",1.1
same,pH of the gastric fluid,"[1]; s.c., 100 mg./kg.",1.2
same,Anti-Ulcer: ratio of number of animals with ulcers to total number of animals in the test group,[2],5/5
"NC(=O)CCn1c(-c2ccccc2)c(CO)c2ccccc21 [Example 8D, β-(2-Phenyl-3-hydroxymethyl-1-indole)propionamide]",inhibition in vivo at 100 mg/kg,[1]; [4],28%
same,inhibition in vivo at 100 mg/kg,[1]; [7],38%
same,pH of the gastric fluid,"[1]; oral, 100 mg./kg.",1.5
same,pH of the gastric fluid,"[1]; s.c., 100 mg./kg.",1.4
same,Anti-Ulcer: ratio of number of animals with ulcers to total number of animals in the test group,[2],0/5
"CCc1c(C)n(CC(N)=O)c2ccccc12 [Example 3C, 2-Methyl-3-ethyl-1-indoleacetamide]",inhibition in vivo at 100 mg/kg,[1]; [4],86%
same,pH of the gastric fluid,"[1]; oral, 100 mg./kg.",2.8
same,inhibition in vivo at 100 mg/kg,"[2]; Rattus norvegicus, 18 h",97%
"Cc1c(C(O)C(F)(F)F)c2ccccc2n1CCC(N)=O (stereo not drawn) [Example 8F, β-[2-Methyl-3-(2-trifluoro-1-hydroxyethyl)-1-indole]-propionamide]",inhibition in vivo at 100 mg/kg,[1]; [5],69%
same,inhibition in vivo at 100 mg/kg,[1]; [6],24%
same,inhibition in vivo at 100 mg/kg,[1]; [4],2%
same,inhibition in vivo at 100 mg/kg,[1]; [7],7%
same,pH of the gastric fluid,"[1]; i.d., 100 mg./kg.",1.5
same,pH of the gastric fluid,"[1]; i.p., 100 mg./kg.",1.2
same,pH of the gastric fluid,"[1]; oral, 100 mg./kg.",1.0
same,pH of the gastric fluid,"[1]; s.c., 100 mg./kg.",1.0
same,inhibition in vivo at 50 mg/kg,"[2]; Rattus norvegicus, 18 h",45%
"Cc1c(C)n(CC(C)C(N)=O)c2ccccc12 (stereo not drawn) [Example 4H, β-(2,3-Dimethyl-1-indole) -α-methylpropionamide]",inhibition in vivo at 100 mg/kg,[1]; [4],100%
same,pH of the gastric fluid,"[1]; oral, 100 mg./kg.",5.7
same,inhibition in vivo at 100 mg/kg,"[2]; Rattus norvegicus, 18 h",89%
"Cc1c(C)n(C(N)=O)c2ccc(Cl)cc12 [Example 5, 2,3-dimethyl-5-chloro-1-indolecarboxamide]",inhibition in vivo at 100 mg/kg,[1]; [4],41%
same,pH of the gastric fluid,"[1]; oral, 100 mg./kg.",2.0
same,inhibition in vivo at 25 mg/kg,"[2]; Rattus norvegicus, 18 h",0%
"Cc1c(C)n(CC(=O)NCCO)c2ccccc12 [Example 3A, 2,3-dimethyl-1-indole-N-(2-hydroxyethyl)acetamide]",inhibition in vivo at 100 mg/kg,[1]; [4],22%
same,pH of the gastric fluid,"[1]; oral, 100 mg./kg.",1.4
same,inhibition in vivo at 100 mg/kg,"[2]; Rattus norvegicus, 18 h",84%
same,inhibition in vivo at 50 mg/kg,[3],69%
